Source: publication PMC9298352, “Design, Synthesis and Structural Analysis of Glucocerebrosidase Imaging Agents” (Chemistry (Weinheim an Der Bergstrasse, Germany), 2021)

Target: T1, rhGBA (Homo sapiens, UniProt P04062)
T1 construct: made in house; host or cells: insect-baculovirus expression vector system (BEVS)
T1 sequence (P04062 40-536): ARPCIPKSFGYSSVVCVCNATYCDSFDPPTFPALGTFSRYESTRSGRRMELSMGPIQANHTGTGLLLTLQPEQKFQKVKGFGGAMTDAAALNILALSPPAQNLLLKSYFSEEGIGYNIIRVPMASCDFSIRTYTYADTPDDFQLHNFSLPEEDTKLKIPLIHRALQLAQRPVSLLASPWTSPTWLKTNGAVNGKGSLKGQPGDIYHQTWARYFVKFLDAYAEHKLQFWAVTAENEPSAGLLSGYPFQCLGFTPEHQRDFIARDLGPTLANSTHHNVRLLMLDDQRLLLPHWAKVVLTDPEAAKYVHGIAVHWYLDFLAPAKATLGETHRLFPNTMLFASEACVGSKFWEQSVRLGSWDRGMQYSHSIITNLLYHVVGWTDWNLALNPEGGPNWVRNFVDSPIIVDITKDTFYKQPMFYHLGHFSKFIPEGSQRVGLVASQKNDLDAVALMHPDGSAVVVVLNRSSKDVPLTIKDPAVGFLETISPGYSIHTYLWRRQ
Experiment: pH dependent activity-based labelling of rhGBA by ABP 6 and ABP 9
Type: biochemical
Conditions: rhGBA 200 nM, ABP 150 nM, pH 4.5, 5.2 or 7.4, 37 °C, 30 mins
Protocol: Cy5 tetrazine 20 (2.83 mg, 4.3 µmol) was added to a solution of norbornene 19 (0.94 mg, 2.38 µmol) in MeOH (4 mL). After stirring overnight at rt, the reaction mixture was concentrated in vacuo and purified by HPLC under neutral conditions (A: 50 mM NH4HCO3 in H2O; B: MeCN; 49% → 52%, A in B) yielding ABP 7 (2.12 mg, 2.07 µmol, 87%) as a mixture of regioisomers.
Biochemical Methods: General Experimental Details
Recombinant human GBA (rhGBA, imiglucerase, Cerezyme®) and GAA (rhGAA, alglucosidase alfa, Myozyme) were obtained from Sanofi Genzyme (Cambridge, MA, USA). HEK293T (CRL-3216) cell lines were purchased from ATCC (Manassas, VA, USA). […] All the tissue lysates were prepared in potassium phosphate lysis buffer (25 mM in pH 6.5, supplemented with 0.1% (v/v) Triton X-100 and protease inhibitor 1x cocktail (Roche)) via homogenization with silent crusher S equipped with Typ 7 F/S head (30 rpm x 1000, 3 × 7 sec) on ice and lysate concentration was determined with Bicinchoninic acid (BCA) Protein Assay Kit (PierceTM)[7]. […]
ABP 9 were diluted with DMSO into various concentrations (200x of the final concentration), and 5 µL of ABP at different concentrations were added into 1 mL fresh medium containing cells and incubated at 37°C for 24 h. […] The protein concentrations were determined using BCA kit. […]

CCCCCCCCN1[C@@H]2[C@H](Cn3cc(CNC(=O)CCCCC[N+]4=C(/C=C/C=C/C=C5/N(C)c6ccccc6C5(C)C)C(C)(C)c5ccccc54)nn3)[C@@H](O)[C@H](O)[C@@H](O)[C@@H]21 (stereo partly shown) [ABP 6]
pH dependence of rhGBA labelling: greater labelling at acidin pH (4.5 and 5.2)
